Measured values published in patent publication US7504095B2, “Method for obtaining precursor Z and use thereof for the production of a means for therapy of human molybdenum cofactor deficiency” (Technische Universitaet Braunschweig, priority 2004, dated 2009).

Legend:
[1] = Oxidation of precursor Z to compound Z in 2x PBS buffer, UV-VIS; format: physicochemical
Protocol: (a) Oxidation of precursor Z to compound Z. (b) UV-VIS absorption spectrum of 22 μM precursor Z after 17 h incubation at room temperature in 2× PBS-Buffer (pH 6.9). The spectra were recorded and indicated in time intervals following dilution in Buffer. (c) […] of oxidation of precursor Z by recording the absorption at 350 nm from the spectra shown in (b).
In order to obtain larger amounts, we used a bacterial strain, which enriched precursor Z on the basis of a defect in the conversion to MPT. A further improvement in the yield could be achieved by over expression of the protein MoaA and MoaC, which catalyse the first step of Moco-synthesis. This leads to an approximately 5000-fold enrichment of precursor Z in comparison to wild type cells, with an average yield of 40 μg per L E. coli culture and a final concentration of 30-140 μg/ml. […] Under physiological and aerobic conditions at pH 6.9 (2×PBS buffer) a 22 μM solution of precursor Z was oxidized within 5 h completely to compound ZBe^9. The half time of precursor Z at pH 6.9 could be determined with 62±12 (FIG. 5c).

[2] = Oxidation of precursor Z in D2O/DCl on exposure to air, followed by 1H-NMR; format: physicochemical; details: D2O and DCl, exposed to air
Protocol: One- (1D) and two-dimensional (2D) ^1H-NMR-correlation spectra (COSY) were recorded at 300 K with a Bruker Avance DMX 600 NMR-spectrometer, which is linked to the dominating resonance of deuterium from the solvent D2O. Chemical shifts are indicated in ppm relative to the background signal of the solvent (4.80 ppm) and couplings in Hz. Precursor Z containing samples (100-200 μg) were freeze-dried and resuspended in 700 μl degassed D2O and 2 μl 36% DCl. For avoidance of oxidation, the pipette was gased for 5 minuites with nitrogen. These solutions were stable enough for recording both 1D- and 2D-COSY-spectra. Subsequent exposure of the solution to air caused the oxidation of the precursor Z to the well-described main single product, compound Z, and this reaction was monitored at regular intervals by recording 1D-^1H-spectra. Under normal conditions, this reaction is concluded after 14 days in D2O and DCl.

E. coli MPT-Synthase = E. coli MPT-Synthase (Escherichia coli, UniProt P30749); test: In vitro conversion of precursor Z to MPT with purified MPT-synthase; format: biochemical; details: double excess of MPT-synthase, HPLC formA analysis
Source text: The biological activity of the purified precursor Z could be verified by a quantitive in vitro conversion to MPT tinder use of purified E. coli MPT-Synthase^B26 . […] In order to determine the amount of precursor Z needed for a successful reestablishment of Moco-biosynthesis in MOCS1-deficient mice, we carried out an in vitro reconstitution with various amount of precursor Z in protein-raw extract from the liver of five day old MOCS1-deficient mice carried out (FIG. 6a). In the case of the employment of 134 ng precursor Z/mg protein a near complete reestablishment of Moco-biosynthesis could be achieved, while 27 ng precursor Z led to a reconstitution of approximately 50%. The protein total concentration of the liver extract amounted to 6 mg (obtained from 50 mg total liver tissue) which necessitated a total required amount of precursor Z of 0.8 μg for each animal for complete reestablishment of the MPT-synthesis under in vitro conditions. Accordingly for an adult animal with a body weight of 20 g and an approximate mass or weight of the liver of 1 g, 16 μg precursor Z was needed for complete reestablishment, however only 3 μg for an activation of 50%. […]

[3] = tested on: MPT-synthesis in MOCS1-deficient liver extracts; test: In vitro reconstitution of MOCS1-deficient liver extract, nit-1 reconstitution assay; format: biochemical, mice
Protocol: FIG. 6: Restoration of the MPT-biosynthesis in vitro and in vivo. (a) In vitro restoration of MOCS1-deficient liver extracts with precursor Z. Protein raw extract of a five day old MOCS1^−/− were incubated (1 h) with the indicated amounts of purified precursor Z per mg protein. Restoration of MPT-synthesis was measured by means of nit-1 reconstitution assay. (b-d) Biochemical analysis of precursor Z treated MOCS1-deficient animals. The mice were twice weekly injected with increasing amounts of precursor Z, beginning with 2 μg after birth and up to 8 μg after weaning. Between the days 25-55 after birth the treatment was stopped. On day 0 (4 hours after the last injection), 1, 4 and 7 respectively, two mice were sacrificed. Two liver samples of each animal were removed and separately further processed. Each value in the figure was thus determined four times. Total-MPT inclusive Moco (b), sulphite oxidase activity (c) and xanthine dehydrogenase (d) are indicated as percentage of the corresponding wildtype value (n=4).
The biological activity of the purified precursor Z could be verified by a quantitive in vitro conversion to MPT tinder use of purified E. coli MPT-Synthase^B26 . […] In order to determine the amount of precursor Z needed for a successful reestablishment of Moco-biosynthesis in MOCS1-deficient mice, we carried out an in vitro reconstitution with various amount of precursor Z in protein-raw extract from the liver of five day old MOCS1-deficient mice carried out (FIG. 6a). In the case of the employment of 134 ng precursor Z/mg protein a near complete reestablishment of Moco-biosynthesis could be achieved, while 27 ng precursor Z led to a reconstitution of approximately 50%. The protein total concentration of the liver extract amounted to 6 mg (obtained from 50 mg total liver tissue) which necessitated a total required amount of precursor Z of 0.8 μg for each animal for complete reestablishment of the MPT-synthesis under in vitro conditions. Accordingly for an adult animal with a body weight of 20 g and an approximate mass or weight of the liver of 1 g, 16 μg precursor Z was needed for complete reestablishment, however only 3 μg for an activation of 50%. […] Although the in vitro titration experiment yielded no information regarding which part of the Moco is transmitted to the Apo-sulfhite-oxidase, the investigated or established amount of precursor Z related to the maximal capacity of the MPT-production in the liver of MOCS1-deficient mice.

MOCS1-deficient mice = test: Xanthin and uric acid in urine of treated knockout mice; format: in vivo; details: data not shown
[4] = low pH-values; cited from earlier work
[5] = adult animal, body weight 20 g, liver 1 g

Sequence of E. coli MPT-Synthase (P30749 whole entry): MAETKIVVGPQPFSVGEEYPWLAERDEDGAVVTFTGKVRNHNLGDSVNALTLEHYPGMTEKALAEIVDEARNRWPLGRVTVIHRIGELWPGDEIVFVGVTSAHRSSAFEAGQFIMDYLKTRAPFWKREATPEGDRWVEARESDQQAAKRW
Sequence of E. coli MPT-Synthase (P30748 whole entry, further chain): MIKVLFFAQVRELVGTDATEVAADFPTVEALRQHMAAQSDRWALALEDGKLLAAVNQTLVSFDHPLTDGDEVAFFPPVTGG

With `Nc1nc2c(c(=O)[nH]1)N[C@@H]1[C@H](N2)O[C@@H]2COP(=O)(O)O[C@@H]2C1(O)O` [precursor Z] the “stability under physiological conditions” value ([1]; 2x PBS-Buffer pH 6.9, room temperature) was “stable under physiological conditions”, the “half time of precursor Z” value ([1]; pH 6.9, 2xPBS buffer, aerobic, 22 μM, room temperature) was 62±12 and the “time to complete oxidation to compound Z” value ([1]; pH 6.9, 2xPBS buffer, physiological and aerobic conditions, 22 μM solution) was no more than 5 h. For the same molecule, the “time until oxidation to compound Z is concluded” value [2] was 14 days, the “conversion of precursor Z into MPT” value (E. coli MPT-Synthase) was “almost completely” and the reconstitution ([3]; 27 ng precursor Z, liver extract of five day old MOCS1-deficient mice, 1 h) was “approximately 50%”. For the same molecule, the “reestablishment of Moco-biosynthesis” value ([3]; 134 ng precursor Z/mg protein, liver extract of five day old MOCS1-deficient mice, 1 h) was “near complete”, the “amount of precursor Z needed for an activation of 50%” value [3, 5] was 3 µg and the “amount of precursor Z needed for complete reestablishment” value [3, 5] was 16 µg. For the same molecule, the “total required amount of precursor Z per animal for complete reestablishment of MPT-synthesis” value ([3]; five day old animal, 6 mg liver extract protein, in vitro conditions) was 0.8 µg, the “uric acid in the urine” value (MOCS1-deficient mice) was “not measurable” and the “xanthin in the urine” value (MOCS1-deficient mice) was “very high”. For the same molecule, the estimated half time [4] was “several hours”.
